Key:
[1] = tested on: 3T3 cell line; test: NRU cell viability assay; type: cell-based, murine; details: 3T3, NRU, 24 h
Procedure: (§1) The murine Swiss albino fibroblast (3T3), the squamous carcinoma (A431), the immortal human keratinocyte (HaCaT) and the human epithelial carcinoma (HeLa) cell lines were obtained from Celltec UB. Cells were grown in Dulbecco’s Modified Eagle’s Medium (DMEM) (4.5 g/L glucose) supplemented with 10% (v/v) fetal bovine serum (FBS), 1% (v/v) L-glutamine solution (200 mM) and 1% (v/v) penicillin-streptomycin solution (10,000 U/mL penicillin and 10 mg/mL streptomycin) at 37 °C and 5% CO2 (CO2 Incubator Nuaire, Plymouth, MN, USA). All the biological materials were purchased from Lonza (Verviers, Belgium). Cells were cultured in 75 cm^2 culture flasks (TPP, Trasadingen, Switzerland) and were routinely split using trypsin-EDTA (ethylenediaminetetraacetate) solution (170,000 U/L trypsin and 0.2 g/L EDTA) (Lonza, Verviers, Belgium) when cells are approximately 80% confluent. 3T3 and HaCaT cells (1 × 10^5 cells/ mL) and HeLa and A431 cells (5 × 10^4 cells/mL) were grown at the defined densities into the central 60 wells of a 96-well plate. Cells were incubated for 24 h under 5% CO2 at 37 °C. […] Agitation, determination of the absorbance of the extracted solution and effect of each treatment in comparison with control cells were analogous of those described in the case of the MTT method.

[2] = tested on: all microorganisms tested; test: Broth microdilution MIC, statement for all microorganisms tested; type: cell-based; details: for Antibacterial activity (in words): tested microorganisms
Procedure: Antibacterial assays were conducted in vitro using the broth microdilution method. The minimum inhibitory concentration (MIC) is the smallest concentration of antibacterial agent at which bacterial growth is not observed. MIC values were determined for 4 Gram-positive bacteria (methicillin-resistant Staphylococcus aureus ATCC 43300 (MRSA), Bacillus subtilis ATCC 6633, Kocuria rhizophila 9341, Staphylococcus epidermidis ATCC 12228), 3 Gram-negative bacteria (Klebsiella pneumoniae ATCC 4532, Pseudomonas aeruginosa ATCC 27853, Escherichia coli ATCC 8739) and the fungal strain, Candida albicans ATCC 10231. Frozen stocks of bacteria were incubated on Muller Hinton agar plates for 24 h at 37 °C. From this culture, a bacterial suspension of 1 × 10^6 colony forming units CFU/mL was prepared in MHB (pH = 7.3). Two dilutions of pure surfactants and their binary mixtures were prepared in MH broth to obtain a final concentration ranging from 4 to 454 μM in the microtiter plates.
Then, 10 μL of nutrient broth culture of each microorganism was added to achieve a final density of ca. 5 × 10^5 CFU/mL. The cultures were incubated for 24 h at 37 °C. Every assay was repeated three times.

[3] = tested on: HaCaT cell line; test: NRU cell viability assay; type: cell-based, human; details: 24 h
Procedure: as §1

[4] = Pyrene fluorescence (II/IIII ratio) CMC determination; type: physicochemical; details: pyrene probe, 25 °C; estimated error 10%
Procedure: Fluorescence measurements were carried out using a Shimadzu RF 540 spectrofluorometer (Shimadzu, Kyoto, Japan). Pyrene (Sigma-Aldrich, San Luis, MO, USA) was utilized as a fluorescence probe at 25 °C. From a 5 mM solution of catanionic formulations prepared in a pyrene aqueous solution (10^−6 M), different dilutions were prepared. The fluorescence emission spectra of these binary mixtures were acquired from 340 to 450 nm after excitation at 332 nm. The ratio of the first to the third vibronic peaks (II/IIII) in the emission spectra of pyrene is sensitive to the polarity of the microenvironment and the CMC can be calculated from plots of II/IIII as a function of surfactant concentration.

[5] = tested on: 3T3 cell line; test: MTT cell viability assay; type: cell-based, murine; details: 3T3, MTT, 24 h
Procedure: The murine Swiss albino fibroblast (3T3), the squamous carcinoma (A431), the immortal human keratinocyte (HaCaT) and the human epithelial carcinoma (HeLa) cell lines were obtained from Celltec UB. Cells were grown in Dulbecco’s Modified Eagle’s Medium (DMEM) (4.5 g/L glucose) supplemented with 10% (v/v) fetal bovine serum (FBS), 1% (v/v) L-glutamine solution (200 mM) and 1% (v/v) penicillin-streptomycin solution (10,000 U/mL penicillin and 10 mg/mL streptomycin) at 37 °C and 5% CO2 (CO2 Incubator Nuaire, Plymouth, MN, USA). All the biological materials were purchased from Lonza (Verviers, Belgium). Cells were cultured in 75 cm^2 culture flasks (TPP, Trasadingen, Switzerland) and were routinely split using trypsin-EDTA (ethylenediaminetetraacetate) solution (170,000 U/L trypsin and 0.2 g/L EDTA) (Lonza, Verviers, Belgium) when cells are approximately 80% confluent. […]
In this assay, living cells reduce the yellow tetrazolium salt, 2,5-Diphenyl-3, -(4,5-dimethyl-2-thiazolyl) tetrazolium bromide (MTT), to insoluble purple formazan crystals. […] Then, the absorbance of the resulting solutions was measured at 550 nm using a Bio-Rad 550 microplate reader (Hercules, California, USA). The effect of each treatment was calculated as the percentage of tetrazolium salt reduction by viable cells against the untreated cell control (cells with medium only).

Molecule	IC50 [1] [µM]	Antibacterial activity (in words) [2]	IC50 [3] [µM]	CMC obtained by Fluorescence (CMCF) [4] [mM]	IC50 [5] [µM]	IC50 ([1]; Mus musculus, NIH3T3) [µM]	MIC ([2]; read-out: MIC for all microorganisms tested) [µM]	IC50 ([3]; Homo sapiens) [µM]	IC50 ([5]; Mus musculus, NIH3T3) [µM]
N(π),N(τ)-bis(methyl)-L-Histidine tetradecyl amide [DMHNHC14]	26.1	broad spectrum of antibacterial activity	45.7	3.8	17.1				
CCCCCCCCCCCCCC(=O)O [Sodium myristate, sodium myristate]		did not show activity		0.90		> 50	> 113	> 50	> 50

Source: article PMC7727793, “Aggregation Behavior, Antibacterial Activity and Biocompatibility of Catanionic Assemblies Based on Amino Acid-Derived Surfactants” (International Journal of Molecular Sciences, 2020)
